Data published in US10316021B2, “Heteroarylphenoxy benzamide kappa opioid ligands” (Pfizer Inc., priority 2016, dated 2019).
Entries after “also recorded” stand apart in the source; their conditions may differ. Where two headings read alike, the source gives them in different places.

How the values were obtained:
[1] = biological target: T1, human mu opioid receptor (hMOR) (Homo sapiens, UniProt P35372); test: Mu radioligand binding assay ([3H]diprenorphine, CHO cell membranes); details: read-out: hMOR binding assay Ki
T1 construct: expressed in transfected cells; host or cells: CHO cells
Experimental: (§1) Kappa and Mu Radioligand Binding Assay:
Binding assays on membranes from CHO cells expressing human kappa or mu opioid receptors were performed according to standard procedures. Frozen cell paste was homogenized in 50 mM Tris HCl buffer (pH 7.4 @ 4 degrees C.) containing 2.0 mM MgCl2 using a Polytron and spun in a centrifuge at 40,000 g for ten minutes. The final pellet was resuspended in assay buffer (50 mM Tris HCl buffer, pH 7.4, containing 1 mM EDTA, 5 mM MgCl2). Incubations were initiated by the addition of membranes to 96-well plates containing test drugs and [^3H]diprenorphine (0.6 nM final concentration for kappa opioid receptor and 0.5 nM final concentration for mu) in a final volume of 250 μl. Non-specific binding was determined by radioligand binding in the presence of a saturating concentration of naltrexone (10 μM). After a one hour incubation period at room temperature, assay samples were rapidly filtered through PEI coated, GF/B fired Unifilter plates (PerkinElmer) and rinsed with ice-cold 50 mM Tris buffer (pH 7.4). Membrane bound [^3H]diprenorphine levels were determined by liquid scintillation counting of the filterplates in Ecolume scintillation fluid. […] Ki values were calculated according to the Cheng Prusoff equation, Ki=IC50/(1+(L/Kd)), where L is the concentration of the radioligand used in the experiment and the Kd value is the dissociation constant for the radioligand (determined previously by saturation analysis).

[2] = biological target: T2, human kappa opioid receptor (hKOR) (Homo sapiens, UniProt P41145); test: Kappa radioligand binding assay ([3H]diprenorphine, CHO cell membranes); details: for Ki: read-out: hKOR binding assay Ki; for Selectivity hMOR/hKOR: selectivity ratio calculated by dividing the hMOR Ki by the hKOR Ki
T2 construct: expressed in transfected cells; host or cells: CHO cells
Experimental: as §1
Binding assays on membranes from CHO cells expressing human kappa or mu opioid receptors were performed according to standard procedures. Frozen cell paste was homogenized in 50 mM Tris HCl buffer (pH 7.4 @ 4 degrees C.) containing 2.0 mM MgCl2 using a Polytron and spun in a centrifuge at 40,000 g for ten minutes. The final pellet was resuspended in assay buffer (50 mM Tris HCl buffer, pH 7.4, containing 1 mM EDTA, 5 mM MgCl2). Incubations were initiated by the addition of membranes to 96-well plates containing test drugs and [^3H]diprenorphine (0.6 nM final concentration for kappa opioid receptor and 0.5 nM final concentration for mu) in a final volume of 250 μl. Non-specific binding was determined by radioligand binding in the presence of a saturating concentration of naltrexone (10 μM). After a one hour incubation period at room temperature, assay samples were rapidly filtered through PEI coated, GF/B fired Unifilter plates (PerkinElmer) and rinsed with ice-cold 50 mM Tris buffer (pH 7.4). Membrane bound [^3H]diprenorphine levels were determined by liquid scintillation counting of the filterplates in Ecolume scintillation fluid. The IC50 value (concentration at which 50% inhibition of specific binding occurs) was calculated using a logistic 4 parameter fit model of the concentration-response data. Ki values were calculated according to the Cheng Prusoff equation, Ki=IC50/(1+(L/Kd)), where L is the concentration of the radioligand used in the experiment and the Kd value is the dissociation constant for the radioligand (determined previously by saturation analysis).

kappa opioid receptor [3] = biological target: T3, kappa opioid receptor (Mus musculus, UniProt P33534); test: In vivo receptor occupancy (displacement of [3H]GR103545 in brain); details: subcutaneous dosing
T3 construct: from tissue; host or cells: brain of adult male C57BL/6J mice (in vivo)
Excerpt: (§2) Adult male C576BL/J6 mice from Jackson Labs (Bar Harbor, Me.) were group housed on individually-vented cage racks, in environmentally-controlled animal quarters (light/dark-6:00 am/6:[…]) for a minimum of 7 days prior to use. For progressive ratio studies, mice were food-restricted to 80-85% of their body weight before testing began. All animal procedures were approved by the Pfizer Inc. IACUC and conducted in accordance with the NIH Guide for the Care and Use of Laboratory Animals.
In Vivo Receptor Occupancy
In vivo receptor occupancy was assessed in adult male C57BL6/J mice. Mice were administered increasing doses (0.001-32 mg/kg s.c.) 30 min prior to administration of the kappa opioid receptor ligand, [^3H]GR103545 (100 μCi/kg, intraorbital). Animals were euthanized 10 min later using cervical dislocation and the brains dissected. One hemisphere was stored at −40° C. for subsequent measurement of compound concentration, the other was homogenized in chilled Tris-HCl buffer (50 mM, pH 7.4; 1:10 w/v) for twenty seconds. Samples of brain homogenate were filtered through 0.3 to 0.5% PEI-soaked GF/B filters, and the filters washed twice with chilled buffer before radioactivity was counted overnight using a scintillation counter. Binding of the ligand in cerebellum was used to determine non-specific binding.

kappa opioid receptor [4] = biological target: T3, kappa opioid receptor; test: Progressive ratio responding (reversal of spiradoline-induced deficit in motivation); type: in vivo; details: co-administered with spiradoline, receptor occupancy measured in a separate group of animals
Excerpt: as §2
Progressive Ratio Responding:
Motivation and food-reinforced operant behavior were assessed in the progressive ratio assay. Adult male C576BL/J6 mice were food-restricted to 80-85% of their body weight over a period of one week and kept in their home cages. Mice were trained to nose-poke for a food reward. […] Mice were assessed in a 60 minute session, where the number of rewards obtained was used as a surrogate of the level of motivation. Once mice had reached a stable level of responding, mice were dosed with the kappa opioid receptor agonist, spiradoline (3.2 mg/kg s.c.), to induce a deficit in motivation. Mice were co-administered increasing doses of the kappa opioid receptor antagonists (0.0032-3.2 mg/kg s.c.) to assess their ability to antagonize the spiradoline-induced deficit.

major CYP450 isozymes = test: CYP450 DDI cocktail assay (reversible inhibition, all isozymes together); type: in vitro ADME, human; details: CYP450 DDI cocktail assay, isozymes inhibited in brackets
Experimental: Multi-Point Cocktail DDI IC50 Assay Conditions:
Standard marker activity substrates were incubated with pooled human liver microsomes (HL-MIX-102) in the presence of NADPH (1.2 mM) in 100 mM KH2PO4, pH 7.4 containing 3.3 mM MgCl2 at 37° C. The incubation volume was 0.1 mL, utilizing a 384-well plate format. The microsomal protein concentrations (0.1 mg/mL) and P450 concentration (0.035 μM) was used for each probe substrate at the following concentrations [tacrine (1A2) 2 uM; diclofenac (2C9) 5 μM; dextromethorphan (2D6) 5 μM; midazolam (3A4) 2 μM; taxol (2C8) 5 μM; S-mephenytoin (2C19) 40 μM]. Substrate concentrations were near Km values that had been previously determined and incubation times were selected based on determinations of reaction velocity linearity. Each test compound/prototypical inhibitors was tested at a concentration range of 0-30 μM in triplicate, in final vehicle solvent concentrations of 0.9% acetonitrile and 0.1% DMSO. Incubations were initiated with the addition of NADPH. At the end of the incubation period, termination solvent containing internal standard was added, the terminated incubation mixture was centrifuged to precipitate microsomal protein. Samples were directly injected on an HPLC-MS/MS system. A Biomek FX workstation was used for liquid handling and sample incubation.
Reversible CYP450 inhibitory potential for each compound was assessed using the CYP450 DDI cocktail assay, measuring the inhibition of the metabolism of a known probe substrate of each of the major CYP isozymes at 3 μM concentration.

[5] = In vitro intrinsic clearance in human liver microsomes; type: in vitro ADME
Experimental: Determination of In Vitro Intrinsic Clearance in Human Liver Microsomes:
Compounds were prepared as solutions in methanol. The final concentration of methanol in the incubation media was 0.2% (v/v). […] The total incubation volume was 1 mL. The reaction mixture was pre-warmed at 37° C. for 2 min before adding NADPH (1.2 mM). Aliquots (75 μL) of the reaction mixture at 0, 5, 10, 15, and 30 min were added to acetonitrile (200 μL) containing internal standard (terfenadine)(0.05 μg/mL), and the samples were centrifuged at 2500 g for 5 min prior to liquid chromatography/tandem mass spectrometry (LC/MS-MS) analysis of each compound using multiple reaction monitoring (MRM). For control experiments, NADPH was omitted from these incubations.
The microsomal half-life (t1/2) was obtained from a log-linear plot of the substrate depletion vs incubation time and was scaled to hepatic intrinsic clearance (CLint) using the following equation, in which the term t1/2 refers to the in vitro half-life: […]

[6] = Table 19, geometric mean of 2-6 determinations unless otherwise indicated (Example 3: >=7)

T2 sequence (P41145 whole entry): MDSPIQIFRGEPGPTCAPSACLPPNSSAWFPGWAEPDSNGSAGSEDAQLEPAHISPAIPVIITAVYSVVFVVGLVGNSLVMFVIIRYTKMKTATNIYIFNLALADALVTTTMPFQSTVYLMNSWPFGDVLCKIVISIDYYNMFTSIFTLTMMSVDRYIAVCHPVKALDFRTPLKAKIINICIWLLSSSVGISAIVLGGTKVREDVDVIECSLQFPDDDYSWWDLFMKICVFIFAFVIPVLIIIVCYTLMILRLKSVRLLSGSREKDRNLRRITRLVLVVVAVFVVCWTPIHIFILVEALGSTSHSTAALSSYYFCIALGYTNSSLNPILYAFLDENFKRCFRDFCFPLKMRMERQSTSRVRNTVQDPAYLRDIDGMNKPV
T1 sequence (P35372 whole entry): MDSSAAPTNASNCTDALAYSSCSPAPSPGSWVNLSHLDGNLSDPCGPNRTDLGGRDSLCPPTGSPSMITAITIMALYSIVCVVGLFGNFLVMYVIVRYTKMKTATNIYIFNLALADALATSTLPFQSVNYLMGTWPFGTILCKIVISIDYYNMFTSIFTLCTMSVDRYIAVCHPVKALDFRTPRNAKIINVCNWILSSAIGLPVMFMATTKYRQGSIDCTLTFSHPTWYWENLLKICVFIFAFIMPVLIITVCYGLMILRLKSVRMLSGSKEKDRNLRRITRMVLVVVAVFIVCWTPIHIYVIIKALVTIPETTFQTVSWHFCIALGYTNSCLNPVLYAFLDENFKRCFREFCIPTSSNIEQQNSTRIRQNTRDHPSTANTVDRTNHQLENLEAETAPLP
T3 sequence (P33534 whole entry): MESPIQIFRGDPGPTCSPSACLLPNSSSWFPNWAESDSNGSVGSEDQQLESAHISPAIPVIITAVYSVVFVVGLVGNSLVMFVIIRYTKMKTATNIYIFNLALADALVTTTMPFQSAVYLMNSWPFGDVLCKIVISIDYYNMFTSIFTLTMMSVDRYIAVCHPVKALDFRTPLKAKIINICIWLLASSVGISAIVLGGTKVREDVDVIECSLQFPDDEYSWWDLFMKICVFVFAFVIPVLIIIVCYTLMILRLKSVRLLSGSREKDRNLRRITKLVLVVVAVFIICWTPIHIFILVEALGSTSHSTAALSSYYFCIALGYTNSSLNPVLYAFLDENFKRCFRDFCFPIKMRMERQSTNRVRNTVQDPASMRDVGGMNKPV

Structure (SMILES) | Ki [1, 6] [nM] | Ki ([1]; Table 20, radioligand binding) [nM] | KOR potency, in words [2] | Ki [2, 6] [nM] | Ki ([2]; Table 20, radioligand binding) [nM] | Selectivity hMOR/hKOR [2] | IC50 (kappa opioid receptor [3]; displacement of [3H]GR103545, unbound brain concentration, read-out: Mouse KOR IVRO unbound brain IC50) [nM] | % KOR IVRO to achieve 50% PR reversal (kappa opioid receptor [4]) [%] | >25% reversible inhibition of CYP activity at 3 μM (CYP) (major CYP450 isozymes) | hepatic / metabolic clearance in human liver microsomes, in words [5] | CLint scaled at 2 μM ([5]; human, pH 7.4, human liver microsomal intrinsic clearance, read-out: HLM CLint) [mL/min/kg] | selectivity for KOR over MOR, in words [2] | displacement of KOR agonist radioligand binding in the brain, in words (kappa opioid receptor [3])
Cc1cc([C@@H]2CCCN2Cc2ccc(Oc3ccc(C(N)=O)cc3F)cc2)n(C)n1 [Example 45, 4-(4-{[(2S)-2-(1,3-dimethyl-1H-pyrazol-5-yl)pyrrolidin-1-yl]methyl}phenoxy)-3-fluorobenzamide] | 108 | 108 | excellent potency | 1.7 | 1.7 | 64 | 0.25 | 85 |  |  |  | excellent potency and selectivity over MOR; also recorded: more selective than the phenyl examples, Comparators A and B | displaced KOR agonist radioligand ([^3H]GR103545) binding in the brain in an exposure-dependent manner
COc1nn(C)cc1C1CCCN1Cc1ccc(Oc2ccc(C(N)=O)cc2)c(F)c1 (single isomer, unassigned) [Example 32, 4-(2-fluoro-4-{[2-(3-methoxy-1-methyl-1H-pyrazol-4-yl)pyrrolidin-1-yl]methyl}phenoxy)benzamide] | 112 |  |  | 2.47 |  |  |  |  |  |  |  |  | 
Cc1cc(C2CCCN2Cc2ccc(Oc3ccc(C(N)=O)cc3F)cc2)on1 (stereo not drawn) [Example 42] | 318 | 318 | low KOR potency | 54.7 | 54.7 | 5.8 |  |  |  |  |  |  | 

The next lines start with results.

Ki [1, 6] [nM] | Ki ([1]; Table 20, radioligand binding) [nM] | KOR potency, in words [2] | Ki [2, 6] [nM] | Ki ([2]; Table 20, radioligand binding) [nM] | Selectivity hMOR/hKOR [2] | IC50 (kappa opioid receptor [3]; displacement of [3H]GR103545, unbound brain concentration, read-out: Mouse KOR IVRO unbound brain IC50) [nM] | % KOR IVRO to achieve 50% PR reversal (kappa opioid receptor [4]) [%] | >25% reversible inhibition of CYP activity at 3 μM (CYP) (major CYP450 isozymes) | hepatic / metabolic clearance in human liver microsomes, in words [5] | CLint scaled at 2 μM ([5]; human, pH 7.4, human liver microsomal intrinsic clearance, read-out: HLM CLint) [mL/min/kg] | Structure (SMILES) | selectivity for KOR over MOR, in words [2] | displacement of KOR agonist radioligand binding in the brain, in words (kappa opioid receptor [3])
25 | 25 |  | 0.657 | 0.657 | 38 |  |  | no | higher metabolic clearance | 105 | COc1cc(C2CCCN2Cc2ccc(Oc3ccc(C(N)=O)cc3)cc2)n(C)n1 (single isomer, unassigned) [Example 46, 4-(4-{[2-(3-methoxy-1-methyl-1H-pyrazol-5-yl)pyrrolidin-1-yl]methyl}phenoxy)benzamide] |  | 
218 | 218 | good potency | 4 | 4 | 54 |  |  |  |  |  | Cc1nc([C@@H]2CCCN2Cc2ccc(Oc3ccc(C(N)=O)cc3)cc2)ns1 [Example 10, 4-(4-{[(2S)-2-(5-Methyl-1,2,4-thiadiazol-3-yl)pyrrolidin-1-yl]methyl}phenoxy)benzamide] | good potency and selectivity; also recorded: more selective than the phenyl examples, Comparators A and B | 
